In article PMC10746280, “Bacterial efflux pump modulators prevent bacterial growth in macrophages and under broth conditions that mimic the host environment” (mBio, 2023):

How the values were obtained:
E. coli AcrB = biological target: T1, E. coli AcrB (Escherichia coli, UniProt P31224); assay: Isothermal titration calorimetry (ITC) binding to purified AcrB
T1 construct: 4xHis (C); made in house; host or cells: E. coli BL21-Gold (DE3), plasmid derived from pSPORT1
Source text: We selected three compounds for further study, CU032, CU232, and CU244, because they incorporated different aspects of the parent structure, specifically the negative atoms on the benzene ring and the amine on opposite side of the molecule. To determine whether the EPMs could bind AcrB, we used purified E. coli AcrB, which is 95% identical to S. enterica Typhimurium AcrB. […] Here, we show with ITC that, like EPM35, the three analogs are capable of specifically interacting with AcrB to form complexes (Fig. S1; Table 1). Curiously, the analogs have KDs that are 25- to 50-fold larger than that of EPM35. […] Thus, the EPM analogs interact specifically with AcrB in a manner consistent with established EPM substrates.
AcrB protein was purified as described ([25]). Briefly, the AcrB protein contains a 4×His tag at the C-terminus and was overproduced in E. coli BL21-Gold (DE3) cells (Stratagene) using the plasmid derived from pSPORT1 (Invitrogen) ([79]). Cells were grown in 6 L of LB medium with 100 µg/mL ampicillin and disrupted with a French pressure cell. The membrane fraction was collected and washed twice with buffer containing 20 mM sodium phosphate (pH 7.2), 2 M KCl, 10% glycerol, 1 mM EDTA, and 1 mM phenylmethanesulfonyl fluoride (PMSF), and once with 20 mM HEPES–NaOH buffer (pH 7.5) containing 1 mM PMSF. The membrane proteins were then solubilized in 1% (wt/vol) n-dodecyl β-D-maltoside (DDM). Insoluble material was removed by ultracentrifugation at 370,000 × g. The extracted protein was purified with Cu^2+-affinity and G-200 sizing columns ([13], [80]). The purified AcrB protein was then concentrated to a final monomeric concentration of 10 µM in buffer containing 20 mM Na-HEPES (pH 7.5) and 0.05% DDM. Similar protein purification procedures were extensively used to elucidate structure-function of RND transporters, including AcrB ([13], [16], [25]), CusA ([81], [82]), MtrD ([83], [84]), CmeB ([85]), AdeB ([86]), HpnN ([87]), and MmpL3 ([88]).
Briefly, measurements were performed on a Microcal iTC200 (Malvern Panalytical) at 25°C. Before titration, the protein was dialyzed against buffer containing 20 mM Na-HEPES (pH 7.5), 0.05% […] (DDM), and 5% DMSO ([18]). The Bradford assay was used to quantify protein concentration, which was adjusted to a final monomeric concentration of 10 µM. Ligand solution consisting of 100 µM EPM in the aforementioned buffer was prepared as the titrant. Both the protein and ligand samples were degassed before loading the samples. Two-microliter injections of the ligand were used for data collection. Injections occurred at intervals of 60 s and lasted for 4 s. Heat transfer (µcal/s) was measured as a function of elapsed time (s). The mean enthalpies measured from injection of the ligand in the buffer were subtracted from raw titration data before data analysis with ORIGIN software (MicroCal). Titration curves fitted with a non-linear regression fitting to the binding isotherm provided the equilibrium binding constant (KA = 1/KD) and enthalpy of binding (ΔH). Based on the values of KA, the change in free energy (ΔG) and entropy (ΔS) were calculated with the equation ΔG = −RT lnKA = ΔH − TΔS, where T is […] and R is 1.9872 cal/K per mol. Calorimetry trials were also carried out in the absence of AcrB using the same experimental conditions.

S. Typhimurium = assay: Checkerboard growth assays with antibiotics in LPM 5.5 (FICI and MuSyC analyses); assay type: cell-based; parameters: Antibiotic MIC Combination: unit not given here; EPM MIC Combination: unit: µM; settings: for log10(α1) [95% CI] (log-fold-change in potency of EPM due to the antibiotic) / log10(α2) [95% CI] (log-fold-change in potency of the antibiotic due to the EPM) / Βobs [95% CI] (proportion increase in maximal efficacy of the antibiotic): MuSyC fit; for Antibiotic MIC Combination / EPM MIC Combination / FICI value: LPM 5.5
Method: To examine whether the EPM analogs interact additively or synergistically with antibiotics, checkerboard growth assays were carried out in LPM 5.5. We compared three antibiotics (ciprofloxacin, doxycycline, erythromycin) and three EPM analogs (CU032, CU187, CU232) and the EPM35 parent compound (Fig. 6A). Standard fractional inhibitory concentration index (FICI) analyses supported synergy between the EPM analogs and ciprofloxacin (Fig. 6B). Since FICI values cannot distinguish between synergy due to changes in potency (activity) versus efficacy (the extent of the effect) ([42], [43]), we used the MuSyC synergy algorithm to measure EPM-antibiotic synergy ([44], [45]). The data were well fit by the MuSyC equation, with an R^2 of greater than 0.96 for all checkerboards (Table S2). […] Moreover, the consistency in the synergy of potency values across the antibiotics with different EPM analogs points toward a shared mechanism of action: the EPMs could modify the pharmacodynamics of the efflux process and prevent export of specific substrates through interactions with AcrB. We posit that the EPMs differentially reduce antibiotic export resulting in a higher effective intracellular concentration of the antibiotic.
Overnight cation-adjusted MHB-grown cultures of SL1344 or SA10801 were diluted in MHB or LPM 5.5 to an optical density at 600 nm (OD600) of 0.01 and distributed into polystyrene 96-well flat-bottom plates. EPM analogs were added at concentrations up to 300 µM, near the limit of solubility. The antibiotics ciprofloxacin, doxycycline, and erythromycin were added up to concentrations of 2 µM, 2 µM, and 8 µM, respectively. The final DMSO concentration was at or below 2% in all wells. Plates were grown at 37°C with shaking for 18 h and OD600 was monitored (BioTek Synergy H1, BioTek Eon). Each experiment was performed with biological triplicate or higher as indicated. Percent growth was determined by normalizing to OD600 reads in wells containing no D66 or antibiotic. Checkerboards in LPM 5.5 medium were performed with culture grown overnight in LB and diluted to an OD600 of 0.01 in LPM 5.5 and compounds/antibiotics were added as previously described. MuSyC analysis was pursued as previously described ([44], [45]). Briefly, the 2D Hill equation was fit to the normalized growth inhibition data from the checkerboards using a bounded non-linear least square regression algorithm. A Monte Carlo sampling method was used to compute the 95% CI in the parameter fits from three biological replicates. The bounds on the parameters minimal and maximal efficacy of the antibiotics and EPMs (E0,Emax) were [0.99,1.01] and [0,1], respectively ([44], [45]).

[1] = ciprofloxacin (CIPRO) MIC in combination with the EPM
[2] = doxycycline (DOXY) MIC in combination with the EPM

T1 sequence (P31224 whole entry): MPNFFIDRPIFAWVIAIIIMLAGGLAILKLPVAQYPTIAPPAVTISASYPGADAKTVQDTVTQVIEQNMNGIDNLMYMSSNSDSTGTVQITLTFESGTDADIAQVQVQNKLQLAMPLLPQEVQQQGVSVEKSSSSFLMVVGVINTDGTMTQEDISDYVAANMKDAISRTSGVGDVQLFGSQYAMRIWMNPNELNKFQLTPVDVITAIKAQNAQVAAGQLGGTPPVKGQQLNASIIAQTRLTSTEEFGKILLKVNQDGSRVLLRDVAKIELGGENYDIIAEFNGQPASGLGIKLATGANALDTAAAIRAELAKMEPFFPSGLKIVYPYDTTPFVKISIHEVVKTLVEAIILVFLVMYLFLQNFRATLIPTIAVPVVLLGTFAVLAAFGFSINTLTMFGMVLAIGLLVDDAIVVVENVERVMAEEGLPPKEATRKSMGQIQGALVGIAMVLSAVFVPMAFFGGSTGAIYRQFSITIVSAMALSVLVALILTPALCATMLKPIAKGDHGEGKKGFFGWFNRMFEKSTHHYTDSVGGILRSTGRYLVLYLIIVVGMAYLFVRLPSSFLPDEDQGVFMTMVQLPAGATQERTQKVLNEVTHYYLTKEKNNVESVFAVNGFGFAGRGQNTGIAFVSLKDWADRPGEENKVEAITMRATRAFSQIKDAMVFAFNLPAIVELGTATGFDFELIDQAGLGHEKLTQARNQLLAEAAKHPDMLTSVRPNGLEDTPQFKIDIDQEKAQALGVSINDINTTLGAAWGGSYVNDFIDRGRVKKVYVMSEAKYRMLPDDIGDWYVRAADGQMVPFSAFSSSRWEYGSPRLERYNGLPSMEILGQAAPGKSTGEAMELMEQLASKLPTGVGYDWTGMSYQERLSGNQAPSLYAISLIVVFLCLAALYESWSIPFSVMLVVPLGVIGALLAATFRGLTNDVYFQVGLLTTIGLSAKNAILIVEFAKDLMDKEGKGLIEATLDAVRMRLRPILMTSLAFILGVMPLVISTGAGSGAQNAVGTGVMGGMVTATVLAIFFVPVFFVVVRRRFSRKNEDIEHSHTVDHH

NC1CCN(CC(O)COc2ccc(Cl)c(Cl)c2)C1 (stereo not shown) [CU032]
∆H (E. coli AcrB): −1,947 ± 490 cal/mol
∆S (E. coli AcrB): 15.60 cal/(mol deg)
log10(α1) [95% CI] (log-fold-change in potency of EPM due to the antibiotic) (S. Typhimurium; Ciprofloxacin): 0.0 [-0.42,0.07]
log10(α2) [95% CI] (log-fold-change in potency of the antibiotic due to the EPM) (S. Typhimurium; Ciprofloxacin): 1.52 [1.32,1.56]
Βobs [95% CI] (proportion increase in maximal efficacy of the antibiotic) (S. Typhimurium; Ciprofloxacin): 0.07 [0.05,0.1 ]
log10(α1) [95% CI] (log-fold-change in potency of EPM due to the antibiotic) (S. Typhimurium; Doxycycline): -0.06 [-0.3,0.04]
log10(α2) [95% CI] (log-fold-change in potency of the antibiotic due to the EPM) (S. Typhimurium; Doxycycline): 0.25 [0.17,0.28]
Βobs [95% CI] (proportion increase in maximal efficacy of the antibiotic) (S. Typhimurium; Doxycycline): 0.0 [-0.01,0.01]
log10(α1) [95% CI] (log-fold-change in potency of EPM due to the antibiotic) (S. Typhimurium; Erythromycin): 0.08 [-0.23,0.05]
log10(α2) [95% CI] (log-fold-change in potency of the antibiotic due to the EPM) (S. Typhimurium; Erythromycin): 1.11 [0.98,1.11]
Βobs [95% CI] (proportion increase in maximal efficacy of the antibiotic) (S. Typhimurium; Erythromycin): 0.04 [0.04,0.07]
Antibiotic MIC Combination (S. Typhimurium; [1]): 1
Antibiotic MIC Combination (S. Typhimurium; [2]): 2
EPM MIC Combination (S. Typhimurium; with ciprofloxacin (CIPRO)): 30
FICI value (S. Typhimurium; with ciprofloxacin (CIPRO)): 0.35
EPM MIC Combination (S. Typhimurium; with doxycycline (DOXY)): 100
FICI value (S. Typhimurium; with doxycycline (DOXY)): 0.55
EPM MIC Combination (S. Typhimurium; with erythromycin (ERY)): 100
FICI value (S. Typhimurium; with erythromycin (ERY)): 0.58

NC1CCN(CC(O)COc2cccc(C(F)(F)F)c2)CC1 (stereo not shown) [CU232]
∆H (E. coli AcrB): −2,124 ± 93 cal/mol
∆S (E. coli AcrB): 16.30 cal/(mol deg)
log10(α1) [95% CI] (log-fold-change in potency of EPM due to the antibiotic) (S. Typhimurium; Ciprofloxacin): 0.34 [0.18,0.38]
log10(α2) [95% CI] (log-fold-change in potency of the antibiotic due to the EPM) (S. Typhimurium; Ciprofloxacin): 1.87 [1.73,1.85]
Βobs [95% CI] (proportion increase in maximal efficacy of the antibiotic) (S. Typhimurium; Ciprofloxacin): 0.0 [-0.02,0.03]
log10(α1) [95% CI] (log-fold-change in potency of EPM due to the antibiotic) (S. Typhimurium; Doxycycline): 0.14 [-0.23,0.33]
log10(α2) [95% CI] (log-fold-change in potency of the antibiotic due to the EPM) (S. Typhimurium; Doxycycline): 0.16 [0.06,0.19]
Βobs [95% CI] (proportion increase in maximal efficacy of the antibiotic) (S. Typhimurium; Doxycycline): 0.02 [-0.01,0.02]
log10(α1) [95% CI] (log-fold-change in potency of EPM due to the antibiotic) (S. Typhimurium; Erythromycin): -0.02 [-0.35,-0.05]
log10(α2) [95% CI] (log-fold-change in potency of the antibiotic due to the EPM) (S. Typhimurium; Erythromycin): 1.38 [1.11,1.44]
Βobs [95% CI] (proportion increase in maximal efficacy of the antibiotic) (S. Typhimurium; Erythromycin): 0.06 [0.05,0.07]
Antibiotic MIC Combination (S. Typhimurium; [1]): 1
Antibiotic MIC Combination (S. Typhimurium; [2]): 2
EPM MIC Combination (S. Typhimurium; with ciprofloxacin (CIPRO)): 44
FICI value (S. Typhimurium; with ciprofloxacin (CIPRO)): 0.4
EPM MIC Combination (S. Typhimurium; with doxycycline (DOXY)): 100
FICI value (S. Typhimurium; with doxycycline (DOXY)): 0.58
EPM MIC Combination (S. Typhimurium; with erythromycin (ERY)): 100
FICI value (S. Typhimurium; with erythromycin (ERY)): 0.58

OC(CN[C@H]1[C@@H]2CNC[C@@H]21)COc1cc(Cl)cc(Cl)c1 (stereo partly shown) [CU244]
∆H (E. coli AcrB): −8,654 ± 1,384 cal/mol
∆S (E. coli AcrB): −6.91 cal/(mol deg)

OC(COc1ccc(Cl)c(Cl)c1)CN1CCC(Nc2nccc(C(F)(F)F)n2)CC1 (stereo not shown) [EPM35]
log10(α1) [95% CI] (log-fold-change in potency of EPM due to the antibiotic) (S. Typhimurium; Ciprofloxacin): 0.58 [0.17,0.77]
log10(α2) [95% CI] (log-fold-change in potency of the antibiotic due to the EPM) (S. Typhimurium; Ciprofloxacin): -0.12 [-0.22,0.03]
Βobs [95% CI] (proportion increase in maximal efficacy of the antibiotic) (S. Typhimurium; Ciprofloxacin): 0.01 [-0.01,0.01]
log10(α1) [95% CI] (log-fold-change in potency of EPM due to the antibiotic) (S. Typhimurium; Doxycycline): 0.7 [0.41,0.87]
log10(α2) [95% CI] (log-fold-change in potency of the antibiotic due to the EPM) (S. Typhimurium; Doxycycline): 0.43 [0.31,0.39]
Βobs [95% CI] (proportion increase in maximal efficacy of the antibiotic) (S. Typhimurium; Doxycycline): -0.01 [-0.04,-0.01]
log10(α1) [95% CI] (log-fold-change in potency of EPM due to the antibiotic) (S. Typhimurium; Erythromycin): 0.49 [0.15,0.74]
log10(α2) [95% CI] (log-fold-change in potency of the antibiotic due to the EPM) (S. Typhimurium; Erythromycin): -0.01 [-0.06,0.03]
Βobs [95% CI] (proportion increase in maximal efficacy of the antibiotic) (S. Typhimurium; Erythromycin): 0.01 [-0.01,0.01]
synergy with antibiotics (S. Typhimurium; checkerboards in LPM 5.5): did not synergize with the antibiotics
Antibiotic MIC Combination (S. Typhimurium; [1]): 1
Antibiotic MIC Combination (S. Typhimurium; [2]): 2
EPM MIC Combination (S. Typhimurium; with ciprofloxacin (CIPRO)): 150
FICI value (S. Typhimurium; with ciprofloxacin (CIPRO)): 0.7
EPM MIC Combination (S. Typhimurium; with doxycycline (DOXY)): 150
FICI value (S. Typhimurium; with doxycycline (DOXY)): 1
EPM MIC Combination (S. Typhimurium; with erythromycin (ERY)): 150
FICI value (S. Typhimurium; with erythromycin (ERY)): 1
